ChEMBL document CHEMBL1150907, “Epolones: novel sesquiterpene-tropolones from fungus OS-F69284 that induce erythropoietin in human cells” (1998)

Key:
[1] = test system: Hep 3B2; assay: Induction of human erythropoietin gene expression in human Hep3B cells over expressing human EPO assessed as concentration required to produce 5-fold induction ratio by luciferase reporter gene assay relative to control; type: functional
[2] = test system: Hep 3B2; assay: Induction of human erythropoietin gene expression in human Hep3B cells over expressing human EPO assessed as maximum induction ratio at 4.3 uM by luciferase reporter gene assay relative to control; type: functional
[3] = test system: Hep 3B2; assay: Induction of erythropoietin secretion in human Hep3B cells expressing human EPO at 10 uM by ELISA; type: functional
[4] = Cytotoxicity against human Hep3B cells after 48 hrs by MTT assay; type: functional, Hep 3B2
[5] = test system: Hep 3B2; assay: Induction of human erythropoietin gene expression in human Hep3B cells over expressing human EPO assessed as maximum induction ratio at 6.5 uM by luciferase reporter gene assay relative to control; type: functional

Row | SMILES | Activity [1] [µM] | Ratio [2] | Activity [3] [mU/ml] | IC90 [4] [µM] | Ratio [5]
1 | Cc1cc(=O)c(O)cc2c1C[C@H]1CC(C)(C)/C=C/C[C@@]3(C)Oc4cc(O)cc(C)c4C[C@@H]3C[C@H](O)[C@]1(C)O2 [EPOLONE A] | 1 | 26 | 45 | > 40 | –
2 | C/C1=C\CC(C)(C)/C=C/C[C@@]2(C)Oc3cc(O)c(=O)cc(C)c3C[C@@H]2C[C@H]1O [EPOLONE B] | 1.5 | – | 40 | > 40 | 22
3 | Cc1cc(=O)c(O)cc2c1C[C@H]1CC(C)(C)/C=C/C[C@@]3(C)Oc4cc(O)c(=O)cc(C)c4C[C@@H]3C[C@H](O)[C@]1(C)O2 [PYCNIDIONE] | 1.6 | 19 | 34 | > 40 | –
